Laboratory results published in ChEMBL document CHEMBL1201862, “PubChem BioAssay data set” (2004).
Activity calls are given as the source filed them.

Key:
[1] = target: T1, Sentrin-specific protease 6 (Homo sapiens, UniProt Q9GZR1); experiment: SAR Analysis of small molecule inhibitors of Sentrin-specific protease 6 (SENP6) using a Luminescent assay. [Related pubchem assays (depositor defined):AID2582, AID2599]; assay type: functional
T1 sequence (Q9GZR1 whole entry): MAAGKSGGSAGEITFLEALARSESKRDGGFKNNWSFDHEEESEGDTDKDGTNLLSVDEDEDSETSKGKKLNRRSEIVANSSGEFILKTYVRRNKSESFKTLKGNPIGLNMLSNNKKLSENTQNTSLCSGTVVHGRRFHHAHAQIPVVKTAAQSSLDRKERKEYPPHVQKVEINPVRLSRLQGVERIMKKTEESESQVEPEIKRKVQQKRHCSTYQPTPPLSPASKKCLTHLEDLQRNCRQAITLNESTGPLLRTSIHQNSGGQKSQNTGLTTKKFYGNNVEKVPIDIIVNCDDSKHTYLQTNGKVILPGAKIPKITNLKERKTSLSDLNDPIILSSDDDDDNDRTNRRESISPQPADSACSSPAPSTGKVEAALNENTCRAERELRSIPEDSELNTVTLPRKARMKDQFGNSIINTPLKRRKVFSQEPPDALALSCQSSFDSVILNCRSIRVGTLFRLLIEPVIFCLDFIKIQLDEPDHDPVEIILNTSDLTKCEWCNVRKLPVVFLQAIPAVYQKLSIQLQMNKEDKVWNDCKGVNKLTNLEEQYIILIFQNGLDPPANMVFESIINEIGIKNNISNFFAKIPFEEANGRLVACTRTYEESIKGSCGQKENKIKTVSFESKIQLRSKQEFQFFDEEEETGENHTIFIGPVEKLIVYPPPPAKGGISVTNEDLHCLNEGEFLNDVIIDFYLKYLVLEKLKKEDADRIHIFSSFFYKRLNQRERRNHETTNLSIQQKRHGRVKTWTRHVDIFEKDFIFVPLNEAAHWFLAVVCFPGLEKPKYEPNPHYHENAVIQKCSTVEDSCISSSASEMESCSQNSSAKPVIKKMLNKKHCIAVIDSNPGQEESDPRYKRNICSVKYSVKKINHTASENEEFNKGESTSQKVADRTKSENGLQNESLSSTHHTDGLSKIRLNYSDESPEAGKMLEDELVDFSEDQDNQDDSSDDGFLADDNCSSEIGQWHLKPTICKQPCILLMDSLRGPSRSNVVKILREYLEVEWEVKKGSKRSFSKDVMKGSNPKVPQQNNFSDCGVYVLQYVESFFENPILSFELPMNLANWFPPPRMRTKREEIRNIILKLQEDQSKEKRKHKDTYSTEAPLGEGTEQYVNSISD

[2] = target: Tyrosyl-DNA phosphodiesterase 2 (Homo sapiens, UniProt O95551); experiment: human TDP2 enzyme inhibitors, dose response, biochemical, epi absorbance, IC50 (AID 743297)
Tyrosyl-DNA phosphodiesterase 2, sequence (O95551 whole entry): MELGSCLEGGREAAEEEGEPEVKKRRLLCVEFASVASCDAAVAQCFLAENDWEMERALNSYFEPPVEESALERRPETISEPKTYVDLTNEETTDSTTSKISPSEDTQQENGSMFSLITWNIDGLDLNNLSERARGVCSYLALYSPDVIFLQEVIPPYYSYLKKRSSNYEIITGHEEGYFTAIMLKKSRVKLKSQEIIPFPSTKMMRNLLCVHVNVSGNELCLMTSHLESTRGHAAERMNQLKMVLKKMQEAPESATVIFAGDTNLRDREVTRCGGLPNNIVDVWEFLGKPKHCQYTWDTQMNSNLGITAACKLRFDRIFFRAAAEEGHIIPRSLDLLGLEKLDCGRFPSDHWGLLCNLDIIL

Question: How did the IC50 [1] turn out when `O=C(NN=c1c(=O)c2ccccc2c1=O)c1ccccc1` was run?
Answer: The IC50 was 5.31 µM (active).

Question: What about the IC50 [2] of the same molecule?
Answer: Its IC50 is 5.36 µM (active).
